Changes are numbered by the printed parent chain. Where two headings read alike, the source gives them in different places. One block for each molecule: values may come before it.
Assays:
[1] = test system: α7 nACh receptor; conditions: cited from earlier work
[2] = target: T1, 5-HT3 receptor (Homo sapiens, UniProt P46098); assay: Affinities from binding tropisetron, granisetron and their analogues at 5-HT3 receptors; conditions: for Ki / pKi Mean ± SEM: 5-HT3 receptor; for Fold change: Ki relative to parent scaffold
T1 construct: expressed in transfected cells; host or cells: HEK293, transient, pcDNA3.1
T1 sequence (P46098 24-478): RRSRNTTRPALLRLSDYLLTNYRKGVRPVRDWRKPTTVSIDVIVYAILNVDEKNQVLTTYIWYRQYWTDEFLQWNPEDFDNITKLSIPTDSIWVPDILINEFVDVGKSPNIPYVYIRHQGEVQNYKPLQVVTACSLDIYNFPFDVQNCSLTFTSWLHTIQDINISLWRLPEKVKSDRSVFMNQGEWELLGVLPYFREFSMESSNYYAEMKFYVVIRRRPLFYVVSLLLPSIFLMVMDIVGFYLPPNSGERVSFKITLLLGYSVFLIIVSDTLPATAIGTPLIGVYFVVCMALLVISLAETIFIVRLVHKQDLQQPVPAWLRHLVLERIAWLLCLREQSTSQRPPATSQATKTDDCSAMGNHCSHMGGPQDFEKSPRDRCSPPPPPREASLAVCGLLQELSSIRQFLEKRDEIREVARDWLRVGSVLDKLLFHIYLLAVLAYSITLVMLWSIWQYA
Procedure: (§1) Human 5-HT3A subunit cDNA (Accession: P46098, kindly provided by J. Peters, Dundee University, UK) was cloned into pcDNA3.1 for expression in HEK293 cells. […] Cells were transiently transfected with either of these cDNA constructs using polyethyleneimine (PEI: 25 kDa, linear, powder, Polysciences Inc., Eppelheim, Germany). 30 μl of PEI (1 mg ml^−1), 5 μg cDNA and 1 ml DMEM were incubated for 10 min at room temperature, added drop wise to a 90 mm plate of 70–80% conﬂuent HEK293 cells, and incubated for 2–3 days before use.
(§2) Transfected HEK 293 cells were scraped into 0.6 ml of ice-cold 10 mM HEPES buffer (pH 7.4) and frozen. After thawing, they were washed with HEPES buffer, homogenised by trituration through a 25 gauge (0.5 mm) needle, and 50 μg of cell suspension incubated in 0.5 ml HEPES buffer containing different concentrations of radioligand. […] Equilibrium reactions were incubated on ice for at least 1 h and terminated by vacuum filtration onto Whatman GF/B filters wetted with 0.3% polyethyleneimine, followed by two rapid washes with 2.5 ml ice cold buffer. Radioactivity was measured by scintillation in Ultima Gold XR (Perkin Elmer, Waltham, MA) using a Tri-Carb 2100 TR (PerkinElmer) scintillation counter. Final counts were monitored to ensure that binding never exceeded 10% of the added concentrations of radioligands.

[3] = target: α7 nACh receptor; conditions: low potency agonist, cited from earlier work
[4] = target: T2, α7 nACh receptor (UniProt P22770+P23979, M226I/T225I); assay: Competition binding with [3H]epibatidine at α7 nACh receptors; set-up: a chimaera of the chick α7 nACh extracellular domain fused to the 5-HT3 transmembrane/intracellular domains; expressed in transfected cells; host or cells: HEK293 cells, transient transfection (pcDNA3.1, PEI); species or system chick
Procedure: as §1, with “J.” for “J. Peters, Dundee University, UK) was cloned into pcDNA3.1 for expression in HEK293 cells.”, “use. […] Non-specific binding was determined with 30 μM (-)/-nicotine. Equilibrium reactions were incubated on ice for at least 1 h and bound radioligand measured using the same method as described above.” for “use.”

[5] = target: T3, 5-HT3A receptor L126C mutant (Homo sapiens, UniProt P46098, L121C); assay: Saturation radioligand binding, 5-HT3A L126C mutant; conditions: L126C versus wild type
T3 construct: expressed in transfected cells; host or cells: HEK293, transient, pcDNA3.1
T3 sequence (P46098 24-478 L121C): T1 sequence (P46098 24-478) with L98C
Procedure: (§3) Mutagenesis was performed using the QuikChange method (Agilent Technologies Inc., California, USA). Cysteine residues were substituted for amino acids throughout each of the binding loops A - E (Fig. 1). To facilitate comparisons with previous work, we have used the numbering of the equivalent residues in the mouse 5-HT3A subunit (Q6J1J7).
as §1
(§4) Transfected HEK 293 cells were scraped into 0.6 ml of ice-cold 10 mM HEPES buffer (pH 7.4) and frozen. […] Radioactivity was measured by scintillation in Ultima Gold XR (Perkin Elmer, Waltham, MA) using a Tri-Carb 2100 TR (PerkinElmer) scintillation counter. Final counts were monitored to ensure that binding never exceeded 10% of the added concentrations of radioligands.
(§5) All data were analysed using GraphPad Prism v5. […]

[6] = target: T4, 5-HT3A receptor wild type (Homo sapiens, UniProt P46098); assay: Saturation radioligand binding, wild type 5-HT3A receptor in HEK293; conditions: wild type 5-HT3 receptors
T4 construct: expressed in transfected cells; host or cells: HEK293, transient, pcDNA3.1
T4 sequence (P46098 24-478): T1 sequence (P46098 24-478)
Procedure: as §1, §2, §5

[7] = target: T2, α7 nACh receptor
Procedure: as §1, §2
All data were analysed using GraphPad Prism v5. Individual saturation binding experiments were fitted to the equation below and the fitted values averaged to yield mean ± sem of n independent experiments: y=[…] where Bmax is maximum binding at equilibrium, Kd is the equilibrium dissociation constant and [L] is the free concentration of radioligand. Affinities were compared using 1-way ANOVA and a Dunnett's Post-Test.

[8] = target: T5, 5-HT3A receptor I71C mutant (Homo sapiens, UniProt P46098, I66C); assay: Saturation radioligand binding, 5-HT3A I71C mutant; conditions: I71C versus wild type
T5 construct: expressed in transfected cells; host or cells: HEK293, transient, pcDNA3.1
T5 sequence (P46098 24-478 I66C): T1 sequence (P46098 24-478) with I43C
Procedure: as §3, §1, §4, §5

[9] = target: AChBP; conditions: AChBP used for co-crystallisation; ref Hibbs et al., 2009; read-out: affinity; cited from earlier work
[10] = target: T6, 5-HT3A receptor R92C mutant (Homo sapiens, UniProt P46098, R87C); assay: Saturation radioligand binding, 5-HT3A R92C mutant; conditions: R92C versus wild type
T6 construct: expressed in transfected cells; host or cells: HEK293, transient, pcDNA3.1
T6 sequence (P46098 24-478 R87C): T1 sequence (P46098 24-478) with R64C
Procedure: as §3, §1, §4, §5

[11] = target: T7, 5-HT3A receptor P155C mutant (Homo sapiens, UniProt P46098, P150C); assay: Saturation radioligand binding, 5-HT3A P155C mutant; conditions: P155C versus wild type
T7 construct: expressed in transfected cells; host or cells: HEK293, transient, pcDNA3.1
T7 sequence (P46098 24-478 P150C): T1 sequence (P46098 24-478) with P127C
Procedure: as §3, §1, §4, §5

[12] = test system: Untransfected HEK293 cells; assay: Radioligand binding at untransfected HEK293 cells; set-up: species or system human
Procedure: Human embryonic kidney (HEK) 293 cells were grown on 90 mm round tissue culture plates as monolayers in DMEM/F12 (Gibco, Life Technologies, CA, USA) supplemented with 10% fetal bovine serum (FBS; Sigma Aldrich) at 37 °C in a moist atmosphere containing 5% CO2.

T2 sequence (P22770+P23979 fused P22770:T225I/P22770:M226I): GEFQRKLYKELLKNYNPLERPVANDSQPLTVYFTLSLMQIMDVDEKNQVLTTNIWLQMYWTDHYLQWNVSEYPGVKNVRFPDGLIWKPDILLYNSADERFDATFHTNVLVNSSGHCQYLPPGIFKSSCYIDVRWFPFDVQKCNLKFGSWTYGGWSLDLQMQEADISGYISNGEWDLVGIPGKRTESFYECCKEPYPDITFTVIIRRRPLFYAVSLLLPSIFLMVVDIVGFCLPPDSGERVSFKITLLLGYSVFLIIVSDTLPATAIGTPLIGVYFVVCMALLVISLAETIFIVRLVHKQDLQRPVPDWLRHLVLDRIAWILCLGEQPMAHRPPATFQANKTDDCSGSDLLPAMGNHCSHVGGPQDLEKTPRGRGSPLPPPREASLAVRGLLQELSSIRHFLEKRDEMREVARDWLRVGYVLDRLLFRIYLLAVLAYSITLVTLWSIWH

Structure (SMILES): CN1C2CCC1CC(NC(=O)c1nn(C)c3ccccc13)C2 (centres unmarked) [LY-278,584]
binding ([1]; α7 nACh receptor, ref Macor et al., 2001): cannot be detected

Structure (SMILES): O=C(O[C@H]1C[C@H]2CC[C@@H](C1)N2Cc1ccccc1)c1c[nH]c2ccccc12 [Compound 4, (1R,3r,5S)-8-benzyl-8-azabicyclo[3.2.1]octan-3-yl 1H-indole-3-carboxylate]
Ki [2]: 1440 nM
pKi Mean ± SEM [2]: 5.84 ± 0.20
Fold change [2]: 2007 fold

difference in affinity at 5-HT3 versus α7 nACh receptors ([4]; 5-HT3 versus α7 nACh): > 1000 fold
Ki ([4]; competition with [3H]epibatidine): 1580 ± 840 nM
change in affinity [5]: 2.5 fold
Non-specific binding, of total [6]: 30.3 ± 1.8%
saturation binding ([7]; α7 nACh receptors): undetectable
change in affinity [8]: 1.9 fold
reduction in affinity [10]: 2.5 fold
decrease in affinity [11]: 5 fold
Structure (SMILES): CN1[C@@H]2CC[C@H]1C[C@@H](OC(=O)c1c[nH]c3ccccc13)C2 [tropisetron, Tropisetron]
EC50 ([3]; ref Macor et al., 2001): 1300 nM
EC50 ([3]; ref Papke et al., 2005): 600 nM
Ki ([1]; α7 nACh receptors, ref Macor et al. (2001)): 6.9 nM
Kd [9]: 500 nM

Structure (SMILES): COc1ccc2[nH]cc(C(=O)O[C@H]3C[C@H]4CC[C@@H](C3)N4C)c2c1 [Compound 1, (1R,3r,5S)-8-methyl-8-azabicyclo[3.2.1]octan-3-yl 5-methoxy-1H-indole-3-carboxylate]
Ki [2]: 95.5 nM
pKi Mean ± SEM [2]: 7.02 ± 0.03
Fold change [2]: 133 fold

Structure (SMILES): COc1ccc2c(C(=O)O[C@H]3C[C@H]4CC[C@@H](C3)N4C)c[nH]c2c1 [Compound 2, (1R,3r,5S)-8-methyl-8-azabicyclo[3.2.1]octan-3-yl 6-methoxy-1H-indole-3-carboxylate]
Ki [2]: 182 nM
pKi Mean ± SEM [2]: 6.74 ± 0.04
Fold change [2]: 253 fold

Structure (SMILES): [3H]C([3H])([3H])N1C2CCC1CC(OC(=O)c1c[nH]c3ccccc13)C2 (centres unmarked) [[^3H]tropisetron]
saturation binding [7]: could not be detected
saturable binding [12]: no saturable binding

Structure (SMILES): CN1C2CCCC1CC(NC(=O)c1nn(C)c3ccccc13)C2 (centres unmarked) [[^3H]granisetron]
saturable binding [12]: no saturable binding

Structure (SMILES): COc1cccc2c(C(=O)O[C@H]3C[C@H]4CC[C@@H](C3)N4C)c[nH]c12 [Compound 3, (1R,3r,5S)-8-methyl-8-azabicyclo[3.2.1]octan-3-yl 7-methoxy-1H-indole-3-carboxylate]
Ki [2]: 30.2 nM
pKi Mean ± SEM [2]: 7.52 ± 0.12
Fold change [2]: 42 fold

Structure (SMILES): COc1cccc2c(C(=O)N[C@H]3C[C@H]4CCC[C@@H](C3)N4C)nn(C)c12 [Compound 7, 7-methoxy-1-methyl-N-((1R,3r,5S)-9-methyl-9-azabicyclo[3.3.1]nonan-3-yl)-1H-indazole-3-carboxamide]
Ki [2]: 120 nM
pKi Mean ± SEM [2]: 6.92 ± 0.24
Fold change [2]: 255 fold

Structure (SMILES): Clc1ccc(C2CC3CCC2N3)cn1 (centres unmarked) [[^3H]epibatidine]
Kd [7]: 8.81 ± 0.13 nM
